These compounds were tested against CDK2 (human) (UniProt P24941) (assay: Enzyme Assay).

| SMILES | IC50 |
| --- | --- |
| CN(C)CCCn1ccc2c(-c3ccnc(Nc4cccc(Cl)c4)n3)cccc21 | < 5 µM |
| O=C(Cn1ccc2c(-c3ccnc(Nc4cccc(Cl)c4)n3)cccc21)NCCO | < 5 µM |
| CN(C)CCn1ccc2c(-c3ccnc(Nc4cccc(Cl)c4)n3)cccc21 | < 5 µM |
| CNC(=O)Cn1ccc2c(-c3ccnc(Nc4cccc(Cl)c4)n3)cccc21 | < 5 µM |
| Cn1ccc2c(-c3ccnc(Nc4cccc(Cl)c4)n3)cccc21 | < 5 µM |
| O=C(Cn1ccc2c(-c3ccnc(Nc4cccc(Cl)c4)n3)cccc21)NCC1CCCN1 (stereo unspecified) | < 5 µM |
| OCCCn1ccc2c(-c3ccnc(Nc4cccc(Cl)c4)n3)cccc21 | < 5 µM |
| CN(C)C(=O)Cn1ccc2c(-c3ccnc(Nc4cccc(Cl)c4)n3)cccc21 | < 5 µM |
| OCCn1ccc2c(-c3ccnc(Nc4cccc(Cl)c4)n3)cccc21 | < 5 µM |
| CC(C)(C)NC(=O)Cn1ccc2c(-c3ccnc(Nc4cccc(Cl)c4)n3)cccc21 | < 5 µM |

The next lines start with the values.

| IC50 | SMILES |
| --- | --- |
| < 5 µM | CS(=O)(=O)c1cccc(Nc2nccc(-c3cccc4[nH]ccc34)n2)c1 |
| < 5 µM | Cc1ccc2[nH]ccc2c1-c1ccnc(Nc2cccc(S(C)(=O)=O)c2)n1 |
| < 5 µM | Cc1cnc(Nc2cccc(S(C)(=O)=O)c2)nc1-c1cccc2[nH]ccc12 |
| < 5 µM | NS(=O)(=O)c1cccc(Nc2ncc(F)c(-c3cccc4[nH]ccc34)n2)c1 |
| < 5 µM | COc1cnc(Nc2cccc(S(N)(=O)=O)c2)nc1-c1cccc2[nH]ccc12 |
| < 5 µM | Cc1cnc(Nc2cccc(S(N)(=O)=O)c2)nc1-c1cccc2[nH]ccc12 |

From the Kinase Knowledgebase extract (Sharma et al. 2016)
